Source: patent US20230234920A1, “Azirine Containing Compounds as Anti-Angiogenesis Agents and a Process for the Preparation Thereof” (COUNCIL OF SCIENTIFIC & INDUSTRIAL RESEARCH, priority 2020, published 2023)

Tests used:
ECs = assay: Post tubule formation assay (disruption of preformed tubules); format: cell-based, human; settings: treatment of already formed tubule
Protocol: FIG. 3 represents effect of Compound 1 on post tubule formation by ECs. (A) ECs were incubated with indicated different concentrations of compound 1 along with VEGF (50 ng/mL) and sunitinib (50 nM) after 6 h of treatment to the already formed tubule. Post treatment photographs were taken at using an inverted microscope at 10×magnification.

Balb/c mice [1] = assay: Matrigel plug assay; format: in vivo
Protocol: (A) Post 7 days treatment of control (0.1% DMSO), sunitinib and Compound 1 at a given concentration, the mice was sacrificed and representative Matrigel plugs were excised and photographed. (B) Hemoglobin estimation was performed using drapkin's reagent and graph was plotted with data that are represented as mean±SEM from three independent experiments with significant difference from control at *p<0.05 using t-test analysis.
Compound 1 ability to modulate neovascularization was evaluated by matrigel plug assay, using mouse-VEGF and bFGF (R&D systems, Minneapolis) as stimulus. 300 μL of matrigel (Corning Inc., Corning, N.Y., USA) were allowed to liquefy at 4° C., supplemented with either VEGF […], bFGF […] and heparin (10 mg/mL) as a control or with sunitinib […] as a positive control. All groups and test groups having similar condition along with Compound 1 (750 nM) were carefully mixed with pre-chilled pipette tips to prevent aeration and gelatinization. […] Matrigel plugs were excised after photographs were taken and angiogenic response was evaluated by spectrophotometric measurement of hemoglobin content using the Drabkin's method according to the manufacturer's protocol (Cat no. D5941-6VL; Sigma, St. Louis, Mo.). Absorbance was measured at 540 nm and hemoglobin concentration was calculated.

Balb/c mice [2] = assay: Ear angiogenesis assay; format: in vivo; settings: 750 nM along with VEGF and bFGF
Protocol: (A) Control (0.1% DMSO), (B) sunitinib and (C) Compound 1 at their indicated concentration dissolved in 100 μL of 1×PBS injected into the […] of Balb/c mice (5 mice/treatment group). After 7 days of treatment ears were harvested, cryo-sectioned at […] thickness. CD31 immunostained and photographed under inverted microscope at 20× magnification. (B) Vasculature was quantified by counting total macro and micro blood vessels. Plotted graph is representative of four independent experiments and are represented as mean±SEM with significant difference compared with control at *p<0.05.
Sterile 1×PBS having mouse VEGF (50 ng/mL), bFGF (50 ng/mL), Heparin (10 mg/mL) and sunitinib (2 μM) as a positive control along with compound 1 (750 nM) as a test compound were injected subcutaneously into the ear of 8- to 12-week old male Balb/c mice. Equal volume of 1×PBS with all components except drug was used as a control and was injected in contra lateral ear. After 6 days, mice were sacrificed and the ears were excised and embedded in OCT for cryo-sectioning. Frozen sections of […] sizes were immunostained with endothelial cell markers anti CD31 and anti PECAM 1 antibody. This was quantified by total number of blood vessels count.

phospho-VEGFR2 = assay: Immunoblotting of treated HUVECs, phospho-VEGFR2; format: cell-based, human; settings: 250 nM, 6 h
Protocol: (§1) (A) Serum-starved HUVECs were treated with control (0.1% DMSO), sunitinib and Compound 1 at a given concentrations and then incubated for 6 h. The expression level of phospho-VEGFR2 and GAPDH (housekeeping protein) was analyzed by immunoblotting. (B) Blots were quantified with Image-J software and the bar graphs represent the relative density of phospho-VEGFR2 normalized with GAPDH and the data are represented as mean±SEM with significant difference compared with control at *p<0.05. (D) Protein angiogenesis array showing up-regulation of anti-angiogenic protein and down-regulation of pro-angiogenic proteins on endothelial cell treated with Compound 1 at 260 nM.
(§2) Whole cell lysates of endothelial cells at 6 h of treatment with Compound 1 (250 nM) and sunitinib (50 nM) were prepared using the RIPA-lysis buffer. Proteins were fractionated and resolved on 8% SDS-PAGE gels and transferred onto PVDF membranes (Millipore). After incubation in blocking buffer (5% BSA in 1×TBST) for 1 h the membranes were incubated with primary antibodies specific for p-Akt and p-Src. GAPDH was used as housekeeping and loading control. The blots were then incubated with specific HRP-conjugated secondary antibodies and bands were visualized using ECL (Millipore) on Image Quant (LAS4010) chemiluminescence detection system. The band intensities were quantified using My Image Analysis software.

Src-kinase = assay: Immunoblotting of treated HUVECs, Src-kinase; format: cell-based, human; settings: 250 nM, 6 h
Protocol: as §1, §2

[3] = test system: MDA-MB 468 triple negative breast cancer; assay: MDA-MB 468 xenograft mouse model; format: in vivo, nude mice
Description: FIG. 13 represents Effect of Compound 1 on triple negative breast cancer celline MDA-MB 468 in xenograft mouse model.
A nude mice model bearing orthotopic HCT116 colon tumor or MDA-MB 468 was used to evaluate the anti-tumor angiogenesis effect of Compound 1 in vivo (FIG. 12). […] To investigate the effects of Compound 1 on angiogenesis and molecular targets in vivo, we examined the expression level of endothelial-specific marker (CD31) in tumor samples.

HUVECs protein lysate = assay: Drug Affinity Receptor Target (DART) analysis; format: binding, human; settings: 10 mM
Protocol: HUVECs with confluency of 80-85% in 100 mm dish were trypsinised and the media was removed and washed twice with 1×PBS. These cells were lysed with lysis buffer at 4° C. Control and treatment group with […] of protein were incubated with vehicle and Compound 1 at a concentration of 10 mM for 15-30 mins at RT with gentle shaking. Then different proteases like thermolysin (10 μg/15 μL) and pronase at […] were added to both the control and treatment groups for 5-10 mins at RT. Digestion was stopped by adding protease inhibitor (20×) at specific interval and allowed to incubate at 4° C. for 10 mins. 6×SDS-PAGE loading dye was added to all the respective samples and heated at 70° C. for 10 mins. SDS-PAGE was performed for the given control and treatment group samples and then the gel was stained with 0.05% Coomassie Brilliant Blue (CBB-R250). After destaining the gel, bands of different molecular weight of treatment and control groups were excised off from the gel and further employed for the protein sequence analysis through LC/MS-MS (Liquid chromatography/Mass spectroscopy).

Src-kinase expression (Src-kinase): marked reduction
protection of protein band against protease digestion (HUVECs protein lysate): Intact protein band was observed
SMILES: CCOC(=O)C1N=C1CCc1ccc(OC)cc1 (racemic) [Compound 1, Ethyl 3-(4-methoxyphenethyl)-2H-azirine-2-carboxylate]
disruption of preformed tubules (ECs): could not be able to disrupt the preformed tubules
blood vessels formation through implanted Matrigel (Balb/c mice [1]; 750 nM): significant reduction in blood vessels formation
hemoglobin concentration (Balb/c mice [1]; 750 nM in Matrigel): 10 to 15 µg/mL
CD31 expression and micro-vessels density (Balb/c mice [2]): reduced CD31 expression and micro-vessels density
p-VEGFR2 expression (phospho-VEGFR2): marked reduction
tumor growth ([3]; 25 mg/kg): regresses tumor growth similar to that of sunitinib
tumor growth ([3]; 40 mg/kg): regresses tumor growth better than the standard compound sunitinib
